From patent publication US20120115852A1, “HETEROCYCLIC COMPOUNDS AS AUTOTAXIN INHIBITORS” (Merck Patent Gesellschaft Mit Beschrankter Haftung, priority 2009, published 2012) come the findings set out here.

Each structure is given as a SMILES string.

For this assay, the target named is T1, recombinant autotaxin (Homo sapiens, UniProt Q13822).
T1 construct: made in house; host or cells: Hi5 insect cells (baculovirus)
As to the kind of experiment: Autotaxin test (enzyme test), Amplex Red fluorescence with LPC substrate. It counts as biochemical. The settings on record: autotaxin inhibition (enzyme test); for remaining activity at 10 µM: 10 μM compound, read-out: % Control at 10 μM. In a few lines: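 Purified recombinant autotaxin (baculovirus Hi5-expressed) pre-incubated with compound 30 min at 22° C, then LPC (final 75 μM) added and reacted 90 min at 37° C in Tris pH 8 buffer with CaCl2. Choline released was coupled via alkaline phosphatase, choline oxidase and peroxidase to Amplex Red; resorufin fluorescence read in kinetic mode (ex 485/em 612 nm).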

Turning to `O=C1Nc2ccc(-c3ccc(Cl)cc3)cc2C(=O)N2CCN(C(=O)COc3ccccc3)C[C@H]12` [Compound B21], the remaining activity at 10 µM is 57%.

With `COc1ccc(-c2ccc3c(c2)C(=O)N2CCN(C(=O)[C@@H]4CSCN4)C[C@@H]2C(=O)N3)cc1` [Compound B22], the remaining activity at 10 µM worked out at 71%.

For `O=C1Nc2ccc(-c3ccccc3F)cc2C(=O)N2CCN(C(=O)c3cccs3)C[C@H]12` [Compound B23], the remaining activity at 10 µM turned out to be 76%.

As for `CN(C)c1ccc(C(=O)N2CCN3C(=O)c4cc(-c5ccccc5F)ccc4NC(=O)[C@H]3C2)cc1` [Compound B24], the remaining activity at 10 µM was 83%.

With `COc1ccc(-c2ccc3c(c2)C(=O)N2CCN(C(=O)CC(C)(C)C)C[C@@H]2C(=O)N3)cc1` [Compound B25], the remaining activity at 10 µM stood at 47% and the IC50 (usually the concentration that gives 50% inhibition) is greater than 1 µM.

`CC(C)(C)CC(=O)N1CCN2C(=O)c3cc(-c4ccc(Cl)cc4)ccc3NC(=O)C2C1` (stereo not drawn) [Compound B26]: the IC50 is 0.1 to 1 µM.

In the case of `O=C1Nc2ccc(-c3ccc(Cl)cc3)cc2C(=O)N2CCN(C(=O)c3ccccc3)CC12` (stereo not drawn) [Compound B27], the remaining activity at 10 µM is 59% and the IC50 is greater than 1 µM.
